SMILES strings stand for the structures.

One test relates to Tarnished Plant Bug (Lygus lineolaris). Put plainly: A. Tarnished Plant Bug leaf-dip test. The test is classed as in vivo. As to conditions: 48 h, 100 ppm., 2 days, read-out: Percent Mortality, Tarnished plant Bug. Here is the method: Test compounds are prepared as 1000 ppm. solutions in 10 % acetone, 0.2 % Alrodyne 315 , and 89.8 % water. A tenfold dilution is made with 65 % acetone and 35 % water. The primary leaves of Sieva lima bean plants are dipped for 3 to 5 seconds in the test solutions and placed in an exhaust hood to dry. When dry, each leaf is placed in a 4 -inch petri dish with a moist filter paper on the bottom. Ten adult Lygus bugs are aspirated from the stock culture and placed in the petri dish. The dishes are covered and held at 80° F. and 50 % R.H. After 2 days, mortality counts are made.
Take `COP(=S)(OC)SCSC(C)(C)c1ccc(Cl)c(Cl)c1` [drawing 21]: the mortality at 100 ppm came to 40%.
Still for that read-out and setting: in the case of `CCOP(=S)(OCC)SCSC(C)(C)c1cc(Cl)ccc1Cl` [drawing 11] it was 0%; in that of `COP(=S)(OC)SCSC(C)(C)c1ccc(Br)cc1` [drawing 19], 40%.
As for `CCOP(=S)(OCC)SCSC(C)(CC)c1ccccc1` (centres unmarked) [drawing 14], the mortality at 100 ppm came to 0%.

A further test deals with Boll Weevil (Anthonomus grandis). Put plainly: B. Boll Weevil leaf-dip test. The test is classed as in vivo. The following applies: 48 h, 100 ppm., 2 days, read-out: Percent Mortality, Boll Weevil. Here is the method: Test compounds are prepared as 1000 ppm. solutions in 10 % acetone, 0.2 % Alrodyne 315 , and 89.8 % water. A tenfold dilution is made with 65 % acetone and 35 % water. The first or second true leaf of young cotton plants is dipped for 3 to 5 seconds in the test solution and placed in an exhaust hood to dry. When dry, each leaf is placed in a 4 -inch petri dish with a moist filter paper on the bottom. Ten adult boll weevils are removed from the stock culture and placed in the petri dish. The dishes are covered and held at 80° F. and 50 % R.H. After 2 days, mortality counts are made.
For the molecule `COP(=S)(OC)SCSC(C)(C)c1ccc(Cl)c(Cl)c1` [drawing 21], the mortality at 100 ppm came out at 70%.
With `CCOP(=S)(OCC)SCSC(C)(C)c1cc(Cl)ccc1Cl` [drawing 11], the mortality at 100 ppm stood at 50%.
With `COP(=S)(OC)SCSC(C)(C)c1ccc(Br)cc1` [drawing 19], the mortality at 100 ppm amounted to 100%.
With `CCOP(=S)(OCC)SCSC(C)(CC)c1ccccc1` (centres unmarked) [drawing 14], the mortality at 100 ppm was determined as 0%.

Another test has as its system Bean Aphid (Aphis fabae). Put plainly: C. Bean Aphid spray test. The test is classed as in vivo. As to conditions: 48 h, 1 ppm., 2 days, read-out: Percent Mortality, Bean Aphid. Here is the method:
Compounds are tested at 100 , 10 and 1 ppm. in solution or suspension in 65 % acetone/35 % water. Two-inch fiber pots each containing a nasturtium plant 2 inches high and infested with about 150 aphids 2 days earlier, are placed on a turntable (4 RPM) and sprayed for two revolutions with a No. 154 DeVilbiss Atomizer at 20 psi. air pressure. The spray tip is held about 6 inches from the plants, and the spray is directed so as to give complete coverage of the aphids and the plants. The sprayed plants are laid on their sides on white enamel trays. Mortality estimates are made after holding for 2 days at 70° F. and 50% R.H.
Consider `COP(=S)(OC)SCSC(C)(C)c1ccc(Cl)c(Cl)c1` [drawing 21], for which the mortality at 1 ppm was 98%.
As to `CCOP(=S)(OCC)SCSC(C)(C)c1cc(Cl)ccc1Cl` [drawing 11], the mortality at 1 ppm is 50%.
For the molecule `COP(=S)(OC)SCSC(C)(C)c1ccc(Br)cc1` [drawing 19], the mortality at 1 ppm stood at 100%.
On to `CCOP(=S)(OCC)SCSC(C)(CC)c1ccccc1` (centres unmarked) [drawing 14], for which the mortality at 1 ppm worked out at 100%.

Staying with this test, now noted: 48 h, 10 ppm., 2 days, read-out: Percent Mortality, Bean Aphid.
On to `COP(=S)(OC)SCSC(C)(C)c1ccc(Cl)c(Cl)c1` [drawing 21], for which the mortality at 10 ppm is 100%.
The same measure, in the same setting: in the case of `CCOP(=S)(OCC)SCSC(C)(C)c1cc(Cl)ccc1Cl` [drawing 11] it was 100%; in that of `COP(=S)(OC)SCSC(C)(C)c1ccc(Br)cc1` [drawing 19], 100%; in that of `CCOP(=S)(OCC)SCSC(C)(CC)c1ccccc1` (centres unmarked) [drawing 14], 100%.

Still in this test, the particulars now being: 48 h, 100 ppm., 2 days, read-out: Percent Mortality, Bean Aphid.
With `COP(=S)(OC)SCSC(C)(C)c1ccc(Cl)c(Cl)c1` [drawing 21], the mortality at 100 ppm is 100%.
Consider `CCOP(=S)(OCC)SCSC(C)(C)c1cc(Cl)ccc1Cl` [drawing 11], for which the mortality at 100 ppm was found to be 100%.
For `COP(=S)(OC)SCSC(C)(C)c1ccc(Br)cc1` [drawing 19], the mortality at 100 ppm stood at 100%.
Take `CCOP(=S)(OCC)SCSC(C)(CC)c1ccccc1` (centres unmarked) [drawing 14]: the mortality at 100 ppm stood at 100%.

A further test concerns Southern Armyworm (Prodenia eridania). Briefly: D. Southern Armyworm leaf-dip test. The test is classed as in vivo. As to conditions: Spodoptera eridania, 48 h; 100 ppm.; 2 days; read-out: Percent Mortality, Southern Armyworm. As to the method: Compounds are tested at 1000 and 100 ppm. in solution or suspension in 65 % acetone/35 % water. Sieva lima bean primary leaves are dipped for 3 seconds in the test solution and set in a hood on a screen to dry. When dry, each leaf is placed in a 4 -inch petri dish which has a moist filter paper in the bottom and ten third-instar armyworm larvae about 3/8 inch long. The dishes are covered and held at 80° F., and 60 % R.H. After 2 days, mortality counts and estimates of the amount of feeding are made. Compounds showing partial kill and/or inhibition of feeding are held an extra day for further observations.
With `COP(=S)(OC)SCSC(C)(C)c1ccc(Cl)c(Cl)c1` [drawing 21], the mortality at 100 ppm is 100%.
For the molecule `CCOP(=S)(OCC)SCSC(C)(C)c1cc(Cl)ccc1Cl` [drawing 11], the mortality at 100 ppm came to 100%.
On to `COP(=S)(OC)SCSC(C)(C)c1ccc(Br)cc1` [drawing 19], for which the mortality at 100 ppm amounted to 100%.
As for `CCOP(=S)(OCC)SCSC(C)(CC)c1ccccc1` (centres unmarked) [drawing 14], the mortality at 100 ppm stood at 0%.

The test is the same for the next values; noted with them: Spodoptera eridania, 48 h; 1000 ppm.; 2 days; read-out: Percent Mortality, Southern Armyworm.
Consider `COP(=S)(OC)SCSC(C)(C)c1ccc(Cl)c(Cl)c1` [drawing 21], for which the mortality at 1000 ppm amounted to 100%.
For the molecule `CCOP(=S)(OCC)SCSC(C)(C)c1cc(Cl)ccc1Cl` [drawing 11], the mortality at 1000 ppm turned out to be 100%.
Regarding `COP(=S)(OC)SCSC(C)(C)c1ccc(Br)cc1` [drawing 19], the mortality at 1000 ppm is 100%.
With `CCOP(=S)(OCC)SCSC(C)(CC)c1ccccc1` (centres unmarked) [drawing 14], the mortality at 1000 ppm came to 100%.

In the next test the test system is Two-spotted Spider Mite (Tetranychus urticae). Put plainly: E. Two-spotted Spider Mite plant-dip test. The test is classed as in vivo. The following applies: 48 h, 100 ppm., 2 days, read-out: Percent Mortality, Two-spotted Spider Mite. Here is the method:
Sieva lima bean plants with primary leaves 3 to 4 inches long are infested with about 100 adult mites per leaf 4 hours before use in this test. The mite and egg infested plants are dipped for 3 seconds in the same solutions used in the aphid test, and the plants set in the hood to dry. They are held for 2 days at 80° F., 60% R.H., and the adult mite mortality estimated on one leaf under a steroscopic microscope. The other leaf is left on the plant an additional 5 days and then examined at 10 X power to estimate the kill of eggs and of newly hatched nymphs, giving a measure of ovicidal and residual action, respectively.
Regarding `COP(=S)(OC)SCSC(C)(C)c1ccc(Cl)c(Cl)c1` [drawing 21], the mortality at 100 ppm came out at 100%.
As to `CCOP(=S)(OCC)SCSC(C)(C)c1cc(Cl)ccc1Cl` [drawing 11], the mortality at 100 ppm was determined as 90%.
Same read-out and setting: next, `COP(=S)(OC)SCSC(C)(C)c1ccc(Br)cc1` [drawing 19]: 100%; `CCOP(=S)(OCC)SCSC(C)(CC)c1ccccc1` (centres unmarked) [drawing 14]: 0%.

Staying with this test, now noted: 48 h, read-out: Percent Mortality, Two-spotted Spider Mite.
On to `COP(=S)(OC)SCSC(C)(C)c1ccc(Cl)c(Cl)c1` [drawing 21], for which the mortality at 300 ppm came to 100%.
`CCOP(=S)(OCC)SCSC(C)(C)c1cc(Cl)ccc1Cl` [drawing 11]: the mortality at 300 ppm amounted to 100%.
Regarding `COP(=S)(OC)SCSC(C)(C)c1ccc(Br)cc1` [drawing 19], the mortality at 300 ppm is 100%.
Consider `CCOP(=S)(OCC)SCSC(C)(CC)c1ccccc1` (centres unmarked) [drawing 14], for which the mortality at 300 ppm stood at 50%.

For another test, the system named is Mexican Bean Beetle (Epilachna varivestis). Briefly: F. Mexican Bean Beetle leaf-dip test. The test is classed as in vivo. The following applies: 48 h, 10 ppm., 2 days, read-out: Percent Mortality, Mexican Bean Beetle. As to the method: Compounds to be tested are made up as 100 or 10 ppm. solutions in 65 % acetone/35 % water. Sieva lima bean leaves are dipped in the test solution and set in the hood to dry. When dry, they are placed in 4 -inch petri dishes which have a moist filter paper in the bottom, and 10 third-instar bean beetles are added to each dish. The dishes are covered and held at 80° F., 60 % R.H. After 2 days, mortality counts and estimates of the amount of feeding are made. Compounds showing kills greater than 75 % are further tested at tenfold dilutions in 65 % acetone/35 % water.
On to `COP(=S)(OC)SCSC(C)(C)c1ccc(Cl)c(Cl)c1` [drawing 21], for which the mortality at 10 ppm was determined as 0%.
With `COP(=S)(OC)SCSC(C)(C)c1ccc(Br)cc1` [drawing 19], the mortality at 10 ppm worked out at 0%.

Still in this test, the particulars now being: 48 h, 100 ppm., 2 days, read-out: Percent Mortality, Mexican Bean Beetle.
Take `COP(=S)(OC)SCSC(C)(C)c1ccc(Cl)c(Cl)c1` [drawing 21]: the mortality at 100 ppm was determined as 30%.
On to `CCOP(=S)(OCC)SCSC(C)(C)c1cc(Cl)ccc1Cl` [drawing 11], for which the mortality at 100 ppm was found to be 0%.
Turning to `CCOP(=S)(OCC)SCSC(C)(CC)c1ccccc1` (centres unmarked) [drawing 14], the mortality at 100 ppm came out at 0%.

Another test deals with Western Potato Leafhopper (Empoasca abrupta). Briefly: G. Western Potato Leafhopper plant-dip test. The test is classed as in vivo. The following applies: 48 h, 10 ppm., 2 days, read-out: Percent Mortality, Western Potato Leafhopper. Here is the method: Sieva lima bean plants with the primary leaf expanded to 3 to 4 inches are dipped into 100 or 10 ppm. 50 % acetone/50 % water solutions and set in the hood to dry. A 1 -inch piece of the tip of a treated leaf is cut off and placed in a 4 -inch petri dish with a moist filter paper in the bottom. From 3 to 10 second-instar nymphs are tapped from the culture plants into the test dish and rapidly covered. Mortality counts are made after 2 days at 80° F., and 50 % R.H.
As to `COP(=S)(OC)SCSC(C)(C)c1ccc(Cl)c(Cl)c1` [drawing 21], the mortality at 10 ppm came out at 0%.
Turning to `CCOP(=S)(OCC)SCSC(C)(C)c1cc(Cl)ccc1Cl` [drawing 11], the mortality at 10 ppm amounted to 50%.
Still for that read-out and setting: in the case of `COP(=S)(OC)SCSC(C)(C)c1ccc(Br)cc1` [drawing 19] it was 0%.
With `CCOP(=S)(OCC)SCSC(C)(CC)c1ccccc1` (centres unmarked) [drawing 14], the mortality at 10 ppm came to 0%.

Still in this test, the particulars now being: 48 h, 100 ppm., 2 days, read-out: Percent Mortality, Western Potato Leafhopper.
As to `COP(=S)(OC)SCSC(C)(C)c1ccc(Cl)c(Cl)c1` [drawing 21], the mortality at 100 ppm worked out at 100%.
For `CCOP(=S)(OCC)SCSC(C)(C)c1cc(Cl)ccc1Cl` [drawing 11], the mortality at 100 ppm was determined as 100%.
Take `COP(=S)(OC)SCSC(C)(C)c1ccc(Br)cc1` [drawing 19]: the mortality at 100 ppm was 100%.
On the same count and under the same terms, in the case of `CCOP(=S)(OCC)SCSC(C)(CC)c1ccccc1` (centres unmarked) [drawing 14] it was 100%.

The test system of a further test is Malaria Mosquito (Anopheles quadrimaculatus). Put plainly: H. Malaria Mosquito Adult Test. As to conditions: 24 h, adults, 1 day, read-out: Percent Mortality, Malaria Mosquito. The test is classed as in vivo. Here is the method: Solutions of 65% acetone/35% water containing 10 ppm. of test compound are poured into wide-mouth 2-ounce jars, each containing a microscope slide. The slides are removed from the test solution with forceps and laid horizontally to dry on a wide-mouth 4-ounce bottle. When dry, they are placed in the same 4-ounce bottle and 10 4- to 5-day-old mosquitoes of mixed sexes are added to each bottle. A piece of cotton gauze held on by an elastic band serves as a lid, and wad of cotton soaked in 10% honey solution serves as food. Mortality counts are made after 1 day at 80° F., 50% R.H. (relative humidity) Data obtained with the above procedures are reported in Table II below.
For the molecule `COP(=S)(OC)SCSC(C)(C)c1ccc(Cl)c(Cl)c1` [drawing 21], the mortality at 10 ppm turned out to be 67%.
Turning to `CCOP(=S)(OCC)SCSC(C)(C)c1cc(Cl)ccc1Cl` [drawing 11], the mortality at 10 ppm was found to be 30%.
Take `COP(=S)(OC)SCSC(C)(C)c1ccc(Br)cc1` [drawing 19]: the mortality at 10 ppm worked out at 75%.
For the molecule `CCOP(=S)(OCC)SCSC(C)(CC)c1ccccc1` (centres unmarked) [drawing 14], the mortality at 10 ppm is 70%.

Values taken from patent publication US4000269A, “S-(α-substituted-arylmethylthio, -arylmethylsulfinyl, and -arylmethylsulfonyl)methyl phosphorus esters used as insecticides” (priority 1975, dated 1976).
